Reference: patent US5716958A, “Amino acid derivative having anti-CCK activity” (Tobishi Pharmaceutical Co., Ltd., priority 1994, dated 1998)
Where two headings read alike, the source gives them in different places.

Tests used:
[1] = biological target: T1, CCK-B (Rattus norvegicus, UniProt P30553); experiment: Central receptor (CCK-B) binding experiment, [^3 H]-CCK-8 binding inhibition; conditions: rat cerebrum homogenate, 0.2 nM [^3 H]-CCK-8, 60 minutes at 25° C
T1 construct: CCK-B receptors originating in the cell membrane of rat brain cells; from tissue; host or cells: rat cerebrum membranes (male rats, Japan Laboratory Animals)
T1 sequence (P30553 1-452): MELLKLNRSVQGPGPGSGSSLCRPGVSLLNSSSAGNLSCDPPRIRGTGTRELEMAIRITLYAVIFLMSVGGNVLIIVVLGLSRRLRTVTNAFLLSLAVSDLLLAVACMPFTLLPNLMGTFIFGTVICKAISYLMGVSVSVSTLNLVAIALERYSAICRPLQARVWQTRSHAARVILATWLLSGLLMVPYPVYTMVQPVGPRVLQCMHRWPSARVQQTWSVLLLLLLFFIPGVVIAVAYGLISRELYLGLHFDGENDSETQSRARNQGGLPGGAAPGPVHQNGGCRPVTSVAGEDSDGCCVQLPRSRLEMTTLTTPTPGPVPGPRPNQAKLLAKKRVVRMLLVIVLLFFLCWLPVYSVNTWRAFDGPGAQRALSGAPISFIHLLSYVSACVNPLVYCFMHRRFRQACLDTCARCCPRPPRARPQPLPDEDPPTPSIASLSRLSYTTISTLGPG
Protocol: (§1) Peripheral Receptor (CCK-A) and Central Receptor (CCK-B) Binding Experiment
(§2) The pancreas and cerebrum of male rats (Japan Laboratory Animals), which were sacrificed by decapitation and having body weights of 250-300 g, were extracted and immersed in cold Hepes buffer. After suspending these tissues using a Potter homogenizer, the suspension was centrifuged for 10 minutes at 48,000×g. The resulting residue was again suspended by addition of cold Hepes buffer and centrifuged for 10 minutes at 48,000×g. The resulting residue was transferred to cold incubation buffer.
(§3) A 1 ml aliquot of the homogenate was incubated for 60 minutes at 25° C. in the presence of 0.2 nM [^3 H]-CCK-8 and the test compound, in the presence of vehicle only (for measurement of 100% binding), or in the presence of 1 μM cold CCK-8 (for measurement of non-specific binding). Next, the reaction solution was promptly suction filtered using a Whatman glass GF/B filter immersed in Hepes buffer followed by washing the filter with cold Hepes buffer. Next, the glass filter was placed in Aquasol-2 followed by assay of radioactivity with a liquid scintillation counter.
(§4) The compound numbers shown in Table 3 indicate the target compounds according to the number of the embodiment.

[2] = system: extracted guinea pig ileum; experiment: Anti-CCK action in extracted guinea pig ileum (inhibition of CCK-8-induced contraction, Magnus tube); set-up: species or system guinea pig (Hartley strain, male); conditions: Cavia porcellus
Protocol: Anti-cholecystokinin (CCK) Action in Extracted Guinea Pig Ileum After sacrificing a male guinea pig (Hartley strain) by striking and exsanguination, a piece of extracted ileum was suspended from a Magnus tube, while applying tension of 0.5 g, containing 30 ml of Tyrode's solution (NaCl 136.9 mM, KCl 2.68 mM, CaCl2 1.8 mM, MgCl2 1.05 mM, NaH2 PO4 0.42 mM, NaHCO3 11.9 mM and glucose 5.55 mM) and ventilated with mixed O2 gas containing 5% CO2 at 37° C. Changes in contraction were recorded on smoked paper for isotonicity via a bevel. The piece of ileum was allowed to stand undisturbed for 30 minutes and then contracted by addition 1×10^-8 M CCK-8. After washing, this was repeated several times. After the contraction by CCK-8 had stabilized, the test compound was added. Contraction resulting from addition of 1×10^-8 M CCK was then measured 5 minutes later. The contraction caused by CCK-8 and the contraction caused by CCK-8 in the presence of the test compound at varying concentrations were compared, and the resulting IC50 values (concentration of test substance at which contraction caused by CCK-8 is inhibited by 50%) are shown in Table 2. The compound numbers shown in Table 2 indicate the target compounds according to the numbers of the embodiments.

[3] = biological target: T2, CCK-A (Rattus norvegicus, UniProt P30551); experiment: Peripheral receptor (CCK-A) binding experiment, [^3 H]-CCK-8 binding inhibition; conditions: for CCK-B/CCK-A: ratio of IC50 values CCK-B/CCK-A (selectivity for CCK-A), 60 min
T2 construct: CCK-A receptors prepared from the cell membranes of rat pancreas; from tissue; host or cells: rat pancreas membranes (male rats, Japan Laboratory Animals)
T2 sequence (P30551 1-444): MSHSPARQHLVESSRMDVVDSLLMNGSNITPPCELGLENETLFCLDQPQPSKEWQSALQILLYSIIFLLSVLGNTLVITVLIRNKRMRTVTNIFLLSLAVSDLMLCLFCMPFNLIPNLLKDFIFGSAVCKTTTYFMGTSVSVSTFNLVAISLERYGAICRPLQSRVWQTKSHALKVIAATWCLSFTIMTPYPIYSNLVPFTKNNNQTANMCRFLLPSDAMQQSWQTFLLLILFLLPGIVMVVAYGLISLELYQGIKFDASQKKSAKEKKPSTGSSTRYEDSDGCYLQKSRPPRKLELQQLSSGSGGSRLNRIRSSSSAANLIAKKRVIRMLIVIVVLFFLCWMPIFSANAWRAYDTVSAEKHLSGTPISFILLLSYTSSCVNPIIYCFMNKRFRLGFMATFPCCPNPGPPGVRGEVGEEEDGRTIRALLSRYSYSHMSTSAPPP
Protocol: as §1, §2, §3, §4

[4] = contraction by 1×10^-8 M CCK-8, test compound added 5 minutes before, extracted ileum, 37° C, read-out: Active IC50
[5] = rat pancreas homogenate, 0.2 nM [^3 H]-CCK-8, 60 minutes at 25° C, read-out: CCK-A IC50

SMILES | IC50 [1] [nM] | IC50 [2, 4] [nM] | IC50 ([3]; rat pancreas cell membranes, read-out: activity in binding experiment on CCK-A receptors prepared from the cell membranes of rat pancreas) [nM] | IC50 [3, 5] [nM] | CCK-B/CCK-A [3] | IC50 ([2]; extracted guinea pig ileum, read-out: IC50 with respect to the extracted guinea pig ileum (in vitro)) [nM]
O=C(N[C@@H](CSc1ncccc1C(=O)O)C(=O)N1CCN(C(c2ccccc2)c2ccccc2)CC1)c1cc2cc(O)ccc2[nH]1 [Compound 12-2, (R)-1-[3-(3-carboxypyridin-2-yl)thio-2-(5-hydroxyindol-2-yl)carbonylamino]propionyl-4-diphenylmethylpiperazine] | 42000 | 27 | 5 | 5 | 8400 | –
CCCCC(CCCC)N1CCN(C(=O)[C@H](CSc2ncccc2C(=O)O)NC(=O)c2cc3ccccc3[nH]2)CC1 [Compound 14-5, (R)-1-[3-(3-carboxypyridin-2-yl)thio-2-(indol-2-yl)carbonylamino]propionyl-4-(1-butylpentyl)piperazine] | 100000 | 260 | – | 170 | 588 | –
CC(C)C(C(C)C)N1CCN(C(=O)[C@H](CSc2ncccc2C(=O)O)NC(=O)c2cc3ccccc3[nH]2)CC1 [Compound 15-4, (R)-1-[3-(3-carboxypyridin-2-yl)thio-2-(indol-2-yl)carbonylamino]propionyl-4-diisopropylmethylpiperazine] | 8800 | 120 | – | 30 | 293 | –
O=C(N[C@@H](CSc1nccnc1C(=O)O)C(=O)N1CCN(C(c2ccccc2)c2ccccc2)CC1)c1cc2ccccc2[nH]1 [Compound 17-3, (R)-1-[3-(3-carboxypyrazin-2-yl)thio-2-(indol-2-yl)carbonylamino)propionyl-4-diphenylmethylpiperazine] | 13000 | 7.2 | – | 560 | 23 | 7.2
O=C(N[C@@H](CSc1ncccc1P(=O)(O)O)C(=O)N1CCN(C(c2ccccc2)c2ccccc2)CC1)c1cc2ccccc2[nH]1 [Compound 22-4, (R)-4-diphenylmethyl-1-[3-(3-phosphonopyridin-2-yl)thio-2-(indol-2-yl)carbonylamino]propionylpiperazine] | 56000 | 36 | – | 20 | 2800 | –
O=C(N[C@@H](CCn1nncc1C(=O)O)C(=O)N1CCN(C(c2ccccc2)c2ccccc2)CC1)c1cc2ccccc2[nH]1 [Compound 24-3, (S)-1-[4-(5-carboxy-1,2,3-triazol-1-yl)-2-(indol-2-yl)carbonylamino]butyryl-4-diphenylmethylpiperazine] | 69000 | 120 | – | 37 | 1865 | –
O=C(N[C@@H](CCc1ocnc1C(=O)O)C(=O)N1CCN(C(c2ccccc2)c2ccccc2)CC1)c1cc2ccccc2[nH]1 [Compound 26-5, (S)-1-[4-(4-carboxyoxazol-5-yl)-2-(indol-2-yl)carbonylamino]butyryl-4-diphenylmethylpiperazine] | 10000 | 17 | – | 16 | 625 | –
O=C(N[C@@H](Cc1ocnc1C(=O)O)C(=O)N1CCN(C(c2ccccc2)c2ccccc2)CC1)c1cc2ccccc2[nH]1 [Compound 27-5, (S)-1-[3-(4-carboxyoxazol-5-yl)-2-(indol-2-yl)carbonylamino]propionyl-4-diphenylmethylpiperazine] | 9600 | 190 | – | 180 | 53 | –
